For data set [1] the following is noted: 10 mg tablets swallowed at two hour intervals; cited from earlier work.
For data set [2] the following is noted: pH less than 7; cited from earlier work.
Data set [3] can be described thus: Element placed in the mouth: subjectively reported nicotine pulse sensation. Type of data set: in vivo, humans. The conditions noted are these: equivalent amounts of nicotine. The text has this: The experiments of Examples 1-16 above describe the physiological effects of consuming a measured (calculated) dose of nicotine in the manner of the instant invention. Moreover, the inventor has found a distinct physiological and mental sensation associated with the administration of one or more nicotine doses. This is believed to strongly resemble the physiological and mental sensation associated with inhaling a puff of the smoke of burning tobacco, which it is believed have some pleasurable component or consideration thereof on the part of the recipient. There is believed to be some longer-lasting physiological and/or mental satisfaction, or lack of further nicotine effect desire, after one or more administrations of nicotine, just as is the case for most people after smoking a part or all of one or more cigarettes.
The examples as described above are of necessity reported in a subjective manner.

The conditions of data set [4]: during cigarette smoking; cited from earlier work.
For data set [5] the following is noted: in vivo; cited from earlier work.
The conditions of data set [6]: cigarette smoking; cited from earlier work.
The conditions of data set [7]: solutions on shaved bellies of cats; cited from earlier work.
The conditions of data set [8]: cited from earlier work.

For the compound `CN1CCCC1c1cccnc1.O=C(O)C(O)C(O)C(=O)O` (stereo not shown) [nicotine tartrate], the “effect of swallowed tablets” value in data set [1] was “only a small effect”.

`CN1CCCC1c1cccnc1` (stereo not shown) [nicotine]: the bucal absorption entry in data set [2] is “very slow”. For the same compound, the “efficiency of transmucosal administration compared with smoking” value in data set [3] was “not as efficient as smoking”. Moreover, in data set [4], the “arterial levels exceeding venous levels” value is listed as “six to ten”. Further, the “mental efficiency, rapid information processing, learning, and vigilance” value in data set [5] is “improve mental efficiency, rapid information processing, learning, and vigilance”. For the same compound, the “time to carry nicotine from the lungs to the brain” value in data set [6] is on record as “less than 20 seconds”. For the same compound, in data set [7], the “rate of percutaneous absorption” value was “much more rapidly than nicotine salts”. In data set [8] (nicotine administration), the “confusion, memory loss and lack of alertness associated with Alzheimer's disease” value was “combated the confusion, memory loss and lack of alertness”. In addition, the “local tolerability of the injection” value in data set [8] (subcutaneous injection, under some conditions) is listed as “severe muscular irritation”. Moreover, the “discriminative sensitivity and reaction time” value in data set [8] (subcutaneous injection, patients with dementia of the Alzheimer type) is “efficacious in improving discriminative sensitivity and reaction time”.
